pIC50: −log10 of the molar value.
Target: Caspase 1 (CASP1) (Homo sapiens, UniProt P29466)
Test: live-cell GFP caspase-1
Assay type: cell-based

Chain of Caspase 1 (CASP1) (P29466 whole entry): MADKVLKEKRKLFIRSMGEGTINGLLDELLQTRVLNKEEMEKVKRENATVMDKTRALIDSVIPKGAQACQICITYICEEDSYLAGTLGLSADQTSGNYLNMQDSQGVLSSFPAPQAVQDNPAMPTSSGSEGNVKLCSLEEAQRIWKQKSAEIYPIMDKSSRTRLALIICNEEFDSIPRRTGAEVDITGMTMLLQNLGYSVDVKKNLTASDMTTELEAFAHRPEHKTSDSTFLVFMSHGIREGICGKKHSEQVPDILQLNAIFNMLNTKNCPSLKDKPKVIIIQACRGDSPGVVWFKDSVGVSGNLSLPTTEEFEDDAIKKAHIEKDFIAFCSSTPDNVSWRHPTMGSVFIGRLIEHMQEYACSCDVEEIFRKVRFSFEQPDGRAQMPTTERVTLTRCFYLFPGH
Chain of Caspase 1 (CASP1) (Q96P20 whole entry R262W partner): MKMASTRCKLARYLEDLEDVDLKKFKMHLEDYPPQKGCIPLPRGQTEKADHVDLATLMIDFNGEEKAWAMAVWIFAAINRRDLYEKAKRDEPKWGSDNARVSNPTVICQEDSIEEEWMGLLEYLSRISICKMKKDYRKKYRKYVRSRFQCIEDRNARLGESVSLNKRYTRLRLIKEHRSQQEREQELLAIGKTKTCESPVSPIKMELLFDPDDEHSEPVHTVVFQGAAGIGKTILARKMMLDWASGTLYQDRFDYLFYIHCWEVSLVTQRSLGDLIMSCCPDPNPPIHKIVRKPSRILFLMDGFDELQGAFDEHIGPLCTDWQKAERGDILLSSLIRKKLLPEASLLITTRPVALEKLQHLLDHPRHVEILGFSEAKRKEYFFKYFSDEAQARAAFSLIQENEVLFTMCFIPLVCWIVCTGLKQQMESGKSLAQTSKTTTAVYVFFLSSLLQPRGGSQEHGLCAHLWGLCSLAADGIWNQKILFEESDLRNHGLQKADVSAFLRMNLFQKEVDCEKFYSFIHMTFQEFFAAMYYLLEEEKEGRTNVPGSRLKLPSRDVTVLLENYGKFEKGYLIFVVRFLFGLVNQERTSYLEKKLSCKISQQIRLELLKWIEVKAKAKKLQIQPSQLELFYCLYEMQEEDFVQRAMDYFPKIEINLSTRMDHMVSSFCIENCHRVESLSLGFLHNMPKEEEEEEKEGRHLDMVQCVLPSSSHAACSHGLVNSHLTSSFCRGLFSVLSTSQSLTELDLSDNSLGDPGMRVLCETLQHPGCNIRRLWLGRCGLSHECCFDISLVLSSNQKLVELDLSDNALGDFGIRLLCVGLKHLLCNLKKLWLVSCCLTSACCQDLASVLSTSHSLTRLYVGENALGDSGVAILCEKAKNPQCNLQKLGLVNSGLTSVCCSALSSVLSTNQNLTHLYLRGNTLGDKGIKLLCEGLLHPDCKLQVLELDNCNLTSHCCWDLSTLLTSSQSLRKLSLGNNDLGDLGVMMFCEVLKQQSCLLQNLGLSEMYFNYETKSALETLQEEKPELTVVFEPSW
Chain of Caspase 1 (CASP1) (Q9ULZ3 whole entry partner): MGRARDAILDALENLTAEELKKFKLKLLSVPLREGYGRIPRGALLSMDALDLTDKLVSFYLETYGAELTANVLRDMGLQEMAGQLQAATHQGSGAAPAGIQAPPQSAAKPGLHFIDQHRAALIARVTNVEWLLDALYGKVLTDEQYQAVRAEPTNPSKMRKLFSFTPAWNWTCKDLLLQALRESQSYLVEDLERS

CC(C)(C)[C@H](NC(=O)c1ccc(N)c(Cl)c1)C(=O)N1CCC[C@H]1C(=O)N[C@H](C=O)CC(=O)O [VRT-043198]
pIC50: 5.33

Source: article PMC8865862 (Journal of Inflammation Research, 2022)
